Experimental findings from ChEMBL document CHEMBL3751837, “Synthesis of tetravalent LacNAc-glycoclusters as high-affinity cross-linker against Erythrina cristagalli agglutinin” (Bioorg Med Chem, 2016) are described below.

A word on the MIC: it is the lowest concentration found to suppress growth. For orientation: Kd means the equilibrium constant for the complex coming apart. Higher therefore signals lower affinity.

Calls of active or inactive are those of the source. The calls are words filed in the database; no cut-off is given here.

The test system of assay [1] is Erythrina crista-galli. Description: Inhibition of Erythrina crista-galli agglutinin-mediated hemagglutination assessed as concentration of LacNAc unit after 40 mins in presence of rabbit erythrocytes. In kind it is cell-based.
The subject of assay [2] is Erythrina crista-galli. Description: Inhibition of Erythrina crista-galli agglutinin-mediated hemagglutination after 40 mins in presence of rabbit erythrocytes. In kind it is cell-based.
Assay [3] relates to Erythrina crista-galli. Nature of the assay: Inhibition of Erythrina crista-galli agglutinin-mediated hemagglutination assessed as concentration of LacNAc unit after 40 mins in presence of rabbit erythrocytes relative to LacNAc. Format: cell-based.
A short description of assay [4]: Binding affinity to Erythrina crista-galli agglutinin by isothermal titration calorimetry analysis.
Assay [5] concerns Erythrina crista-galli. Description: Binding affinity to Erythrina crista-galli agglutinin by isothermal titration calorimetry analysis relative to 3-TFAP-beta-LacNAc. A general note: Isothermal titration calorimetry measures the heat released or taken up as one component is titrated into another.
Assay [6] deals with Erythrina crista-galli. Description: Binding affinity to Erythrina crista-galli agglutinin at 0.625 to 480 uM by quantitative precipitation assay.
Assay [7] relates to Erythrina crista-galli. Description: Binding affinity to Erythrina crista-galli agglutinin assessed as particle size by measuring DLS volume hydrodynamic diameter centered positions at 5 uM by dynamic light scattering analysis (reference value: 8.2 nanometer).
Assay [8] relates to Erythrina crista-galli. Nature of the assay: Binding affinity to Erythrina crista-galli agglutinin at 0.625 to 480 uM by dynamic light scattering analysis.
Assay [9] relates to Erythrina crista-galli. Description: Binding affinity to Erythrina crista-galli agglutinin assessed as particle size by measuring DLS volume hydrodynamic diameter centered positions at 20 uM by dynamic light scattering analysis (reference value: 8.2 nanometer).
Assay [10] has as its system Erythrina crista-galli. Nature of the assay: Binding affinity to Erythrina crista-galli agglutinin assessed as particle size by measuring DLS volume hydrodynamic diameter centered positions at 2.5 uM by dynamic light scattering analysis (reference value: 8.2 nanometer).
Assay [11] deals with Erythrina crista-galli. Nature of the assay: Binding affinity to Erythrina crista-galli agglutinin assessed as particle size by measuring DLS volume hydrodynamic diameter centered positions at 10 uM by dynamic light scattering analysis (reference value: 8.2 nanometer).
Assay [12] relates to Erythrina crista-galli. Description: Binding affinity to Erythrina crista-galli agglutinin assessed as formation of large aggregate at 5 to 10 uM by dynamic light scattering analysis.
Assay [13] has as its system Erythrina crista-galli. Nature of the assay: Binding affinity to Erythrina crista-galli agglutinin assessed as particle size by measuring DLS volume hydrodynamic diameter centered positions at 240 uM by dynamic light scattering analysis (reference value: 8.2 nanometer).

Take `CC(=O)N[C@H]1[C@H](OCCOCCNC(=O)CN(CCOCCOCCN(CC(=O)NCCOCCO[C@@H]2O[C@H](CO)[C@@H](O[C@@H]3O[C@H](CO)[C@@H](O)[C@H](O)[C@H]3O)[C@H](O)[C@H]2NC(C)=O)CC(=O)NCCOCCO[C@@H]2O[C@H](CO)[C@@H](O[C@@H]3O[C@H](CO)[C@@H](O)[C@H](O)[C@H]3O)[C@H](O)[C@H]2NC(C)=O)CC(=O)NCCOCCO[C@@H]2O[C@H](CO)[C@@H](O[C@@H]3O[C@H](CO)[C@@H](O)[C@H](O)[C@H]3O)[C@H](O)[C@H]2NC(C)=O)O[C@H](CO)[C@@H](O[C@@H]2O[C@H](CO)[C@@H](O)[C@H](O)[C@H]2O)[C@@H]1O`: the figures for the minimum inhibitory concentration (MIC) in [1] and in assay [2] were 12 µM and 3 µM, respectively. Besides, the Ratio in assay [3] was found to be 2; in assay [5] it was 4.9. Further, the Kd in assay [4] stood at 7.2 µM. Further, the outcome in [6] was Active.
As for `CC(=O)N[C@H]1[C@H](OCCCNC(=O)C[C@H](NC(=O)CCCCCNC(=O)CCCCCCCCCCC(=O)NCCCCCC(=O)N[C@@H](CC(=O)NCCCO[C@@H]2O[C@H](CO)[C@@H](O[C@@H]3O[C@H](CO)[C@@H](O)[C@H](O)[C@H]3O)[C@H](O)[C@H]2NC(C)=O)C(=O)NCCCO[C@@H]2O[C@H](CO)[C@@H](O[C@@H]3O[C@H](CO)[C@@H](O)[C@H](O)[C@H]3O)[C@H](O)[C@H]2NC(C)=O)C(=O)NCCCO[C@@H]2O[C@H](CO)[C@@H](O[C@@H]3O[C@H](CO)[C@@H](O)[C@H](O)[C@H]3O)[C@H](O)[C@H]2NC(C)=O)O[C@H](CO)[C@@H](O[C@@H]2O[C@H](CO)[C@@H](O)[C@H](O)[C@H]2O)[C@@H]1O`, the Activity in assay [7] was determined as 1750 nm; in assay [6], 95%; in assay [9], 2280 nm; in assay [10], 1880 nm. The minimum inhibitory concentration (MIC) was determined as 0.56 µM in assay [1] and 0.14 µM in [2]. Also, the Ratio in assay [3] was determined as 43; in assay [5], 15.3. Moreover, in assay [4], the equilibrium dissociation constant (Kd) worked out at 2.3 µM. For the same molecule, in assay [8], the result was Active.
Consider `CC(=O)N[C@H]1[C@H](OCCCCCNC(=O)CCCCCNC(=O)CCCSSCCCC(=O)NCCCCCC(=O)NCCCCCO[C@@H]2O[C@H](CO)[C@@H](O[C@@H]3O[C@H](CO)[C@@H](O)[C@H](O)[C@H]3O)[C@H](O)[C@H]2NC(C)=O)O[C@H](CO)[C@@H](O[C@@H]2O[C@H](CO)[C@@H](O)[C@H](O)[C@H]2O)[C@@H]1O`, for which the values for the MIC in [1] and in [2] were 3 µM and 1.5 µM, respectively. The Ratio in assay [3] is 8; in assay [5], 2.3. This molecule also yielded a Kd in assay [4] of 15.6 µM. The Activity in assay [6] was determined as 41%.
For the molecule `CC(=O)N[C@H]1[C@H](OCCCNC(=O)C[C@H](NC(=O)CCCCC(=O)N[C@@H](CC(=O)NCCCO[C@@H]2O[C@H](CO)[C@@H](O[C@@H]3O[C@H](CO)[C@@H](O)[C@H](O)[C@H]3O)[C@H](O)[C@H]2NC(C)=O)C(=O)NCCCO[C@@H]2O[C@H](CO)[C@@H](O[C@@H]3O[C@H](CO)[C@@H](O)[C@H](O)[C@H]3O)[C@H](O)[C@H]2NC(C)=O)C(=O)NCCCO[C@@H]2O[C@H](CO)[C@@H](O[C@@H]3O[C@H](CO)[C@@H](O)[C@H](O)[C@H]3O)[C@H](O)[C@H]2NC(C)=O)O[C@H](CO)[C@@H](O[C@@H]2O[C@H](CO)[C@@H](O)[C@H](O)[C@H]2O)[C@@H]1O`, the MIC in [1] amounted to 6 µM; in assay [2] it was 1.5 µM. Further, the Ratio in assay [3] amounted to 4; in [5], 4.9. For the same molecule, in assay [4], the affinity, expressed as Kd, was 7.2 µM. Besides, the Activity in [6] was found to be 95%.
On to `CC(=O)N[C@H]1C(O)O[C@H](CO)[C@@H](O[C@@H]2O[C@H](CO)[C@@H](O)[C@H](O)[C@H]2O)[C@@H]1O` (some centres not stated), for which the MIC in assay [1] and in [2] was 24 µM throughout.
As to `CC(=O)N[C@H]1[C@H](OCCCNC(=O)C[C@H](NC(=O)CCCCCCCCC(=O)N[C@@H](CC(=O)NCCCO[C@@H]2O[C@H](CO)[C@@H](O[C@@H]3O[C@H](CO)[C@@H](O)[C@H](O)[C@H]3O)[C@H](O)[C@H]2NC(C)=O)C(=O)NCCCO[C@@H]2O[C@H](CO)[C@@H](O[C@@H]3O[C@H](CO)[C@@H](O)[C@H](O)[C@H]3O)[C@H](O)[C@H]2NC(C)=O)C(=O)NCCCO[C@@H]2O[C@H](CO)[C@@H](O[C@@H]3O[C@H](CO)[C@@H](O)[C@H](O)[C@H]3O)[C@H](O)[C@H]2NC(C)=O)O[C@H](CO)[C@@H](O[C@@H]2O[C@H](CO)[C@@H](O)[C@H](O)[C@H]2O)[C@@H]1O`, the minimum inhibitory concentration (MIC) in [1] worked out at 3 µM; in assay [2], 0.75 µM. Moreover, the figures for the Ratio in assay [3] and in [5] were 8 and 9, respectively. The Kd in assay [4] is 3.9 µM. The molecule also had an Activity in assay [6] of 95%.
Consider `CC(=O)N[C@H]1[C@H](OCCCCCNC(=O)CCCSSCCCC(=O)NCCCCCO[C@@H]2O[C@H](CO)[C@@H](O[C@@H]3O[C@H](CO)[C@@H](O)[C@H](O)[C@H]3O)[C@H](O)[C@H]2NC(C)=O)O[C@H](CO)[C@@H](O[C@@H]2O[C@H](CO)[C@@H](O)[C@H](O)[C@H]2O)[C@@H]1O`, for which the MIC in assay [1] was 3 µM; in assay [2], 1.5 µM. In addition, the Ratio is 8 in assay [3] and 2 in [5]. The molecule further had a Kd in assay [4] of 17.5 µM. For the same molecule, in [6], the Activity turned out to be 20%.
In the case of `CC(=O)N[C@H]1[C@H](OCCCNC(=O)C[C@H](NC(=O)CCCCCCCCCCCCCCCCC(=O)N[C@@H](CC(=O)NCCCO[C@@H]2O[C@H](CO)[C@@H](O[C@@H]3O[C@H](CO)[C@@H](O)[C@H](O)[C@H]3O)[C@H](O)[C@H]2NC(C)=O)C(=O)NCCCO[C@@H]2O[C@H](CO)[C@@H](O[C@@H]3O[C@H](CO)[C@@H](O)[C@H](O)[C@H]3O)[C@H](O)[C@H]2NC(C)=O)C(=O)NCCCO[C@@H]2O[C@H](CO)[C@@H](O[C@@H]3O[C@H](CO)[C@@H](O)[C@H](O)[C@H]3O)[C@H](O)[C@H]2NC(C)=O)O[C@H](CO)[C@@H](O[C@@H]2O[C@H](CO)[C@@H](O)[C@H](O)[C@H]2O)[C@@H]1O`, the Activity in assay [11] came out at 1510 nm; in [7], 1110 nm; in assay [6], 95%; in assay [9], 2030 nm; in assay [13], 788 nm. Further, the values for the MIC in [1] and in assay [2] were 0.76 µM and 0.19 µM, respectively. The Ratio is 32 in assay [3] and 14.1 in [5]. The molecule also gave a dissociation constant Kd in assay [4] of 2.5 µM. In addition, the outcome in assay [8] and in assay [12] was Active.
Take `CC(=O)N[C@H]1[C@H](OCCOCCNC(=O)CCCCCNC(=O)CN(CCOCCOCCN(CC(=O)NCCCCCC(=O)NCCOCCO[C@@H]2O[C@H](CO)[C@@H](O[C@@H]3O[C@H](CO)[C@@H](O)[C@H](O)[C@H]3O)[C@H](O)[C@H]2NC(C)=O)CC(=O)NCCCCCC(=O)NCCOCCO[C@@H]2O[C@H](CO)[C@@H](O[C@@H]3O[C@H](CO)[C@@H](O)[C@H](O)[C@H]3O)[C@H](O)[C@H]2NC(C)=O)CC(=O)NCCCCCC(=O)NCCOCCO[C@@H]2O[C@H](CO)[C@@H](O[C@@H]3O[C@H](CO)[C@@H](O)[C@H](O)[C@H]3O)[C@H](O)[C@H]2NC(C)=O)O[C@H](CO)[C@@H](O[C@@H]2O[C@H](CO)[C@@H](O)[C@H](O)[C@H]2O)[C@@H]1O`: the minimal inhibitory concentration (MIC) is 6 µM in assay [1] and 1.5 µM in assay [2]. Also, the Ratio in [3] was determined as 4; in [5] it was 5.9. The Kd in [4] stood at 6 µM. Also, the outcome in assay [6] was Active.
In assay [4], `CC(=O)N[C@H]1[C@H](OCCCNC(=O)C(F)(F)F)O[C@H](CO)[C@@H](O[C@@H]2O[C@H](CO)[C@@H](O)[C@H](O)[C@H]2O)[C@@H]1O` had a dissociation constant Kd of 35.2 µM. Further, the outcome in assay [6] was inactive.
